According to publication PMC6273715, “Synthesis and Evaluation of New Benzodioxole- Based Thiosemicarbazone Derivatives as Potential Antitumor Agents” (Molecules, 2016):

How the values were obtained:
[1] = system: NIH/3T3 mouse embryonic fibroblast cells; assay: MTT cytotoxicity assay, NIH/3T3; type: cell-based; conditions: NIH3T3, 24 h, read-out: IC50 NIH/3T3 Cell Line
Procedure: C6 Rat glioma and NIH/3T3 mouse embryonic fibroblast cells were incubated in Dulbecco’s Modified Eagle’s Medium (DMEM) (Sigma, Deisenhofen, Germany) supplemented with 10% fetal calf serum (Gibco, Paisley, UK). A549 Human lung adenocarcinoma cells were incubated in 90% RPMI supplemented with 10% fetal bovine serum (Gibco). All media were supplemented with 100 IU/mL penicillin-streptomycin (Gibco) and cells were incubated at 37 °C in a humidified atmosphere of 95% air and 5% CO2. Exponentially growing cells were plated at 2 × 10^4 cells/mL into 96-well microtiter tissue culture plates (Nunc, Roskilde, Denmark) and incubated for 24 h before the addition of the drugs (the optimum cell number for cytotoxicity assays was determined in preliminary experiments). The stock solutions of the compounds were prepared in dimethyl sulfoxide (DMSO; Sigma Aldrich, Poole, UK) and further dilutions were made with fresh culture medium (the concentration of DMSO in the final culture medium was <0.1% which had no effect on the cell viability).
(§1) The level of cellular 3-(4,5-dimethylthiazol-2-yl)-2,5-diphenyltetrazolium bromide (MTT) (Sigma) reduction was quantified as previously described in the literature with small modifications. […] At the end of this period, MTT was added to a final concentration of 0.5 mg/mL and the cells were incubated for 4 h at 37 °C. After the medium was removed, the formazan crystals formed by MTT metabolism were solubilized by addition of 200 µL DMSO to each well and absorbance was read at 540 nm with a microtiter plate spectrophotometer (Bio-Tek Plate Reader, Winooski, VT, USA). Every concentration was repeated in three wells.

AChE = AChE (Electrophorus electricus, UniProt O42275); assay: biochemical; type: biochemical; conditions: for IC50: tested at 5–80 μg/mL
Chain of AChE (O42275 24-633): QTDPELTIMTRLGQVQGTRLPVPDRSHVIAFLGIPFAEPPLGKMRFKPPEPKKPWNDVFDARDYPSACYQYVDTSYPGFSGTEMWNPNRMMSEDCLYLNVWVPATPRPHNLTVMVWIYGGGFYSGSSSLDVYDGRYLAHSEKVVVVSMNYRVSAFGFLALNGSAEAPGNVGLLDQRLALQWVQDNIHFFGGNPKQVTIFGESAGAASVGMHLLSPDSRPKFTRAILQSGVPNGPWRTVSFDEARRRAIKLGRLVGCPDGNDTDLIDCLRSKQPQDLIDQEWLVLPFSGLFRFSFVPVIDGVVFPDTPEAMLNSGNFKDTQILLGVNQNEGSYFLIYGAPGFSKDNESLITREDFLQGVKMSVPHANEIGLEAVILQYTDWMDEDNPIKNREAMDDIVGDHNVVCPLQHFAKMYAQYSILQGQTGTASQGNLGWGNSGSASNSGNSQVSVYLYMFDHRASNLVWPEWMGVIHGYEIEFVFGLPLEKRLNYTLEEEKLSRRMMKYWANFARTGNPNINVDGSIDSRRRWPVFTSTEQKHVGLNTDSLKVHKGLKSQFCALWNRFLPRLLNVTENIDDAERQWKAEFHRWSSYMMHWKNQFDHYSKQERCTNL

[2] = system: A549 human lung adenocarcinoma cells; assay: MTT cytotoxicity assay, A549; type: cell-based; conditions: for cytotoxicity (in words): A549, at the concentrations used; for IC50: Homo sapiens, A549, MTT, 24 h, read-out: IC50 A549 Cell Line
Procedure: (§2) C6 Rat glioma and NIH/3T3 mouse embryonic fibroblast cells were incubated in Dulbecco’s Modified Eagle’s Medium (DMEM) (Sigma, Deisenhofen, Germany) supplemented with 10% fetal calf serum (Gibco, Paisley, UK). A549 Human lung adenocarcinoma cells were incubated in 90% RPMI supplemented with 10% fetal bovine serum (Gibco). […] Exponentially growing cells were plated at 2 × 10^4 cells/mL into 96-well microtiter tissue culture plates (Nunc, Roskilde, Denmark) and incubated for 24 h before the addition of the drugs (the optimum cell number for cytotoxicity assays was determined in preliminary experiments).
as §1

C6 rat glioma cells = assay: MTT cytotoxicity assay, C6; type: cell-based; conditions: for cytotoxicity (in words): C6, at the concentrations used; for IC50: Rattus norvegicus, C6, MTT, 24 h, read-out: IC50 C6 Cell Line
Procedure: as §2, §1

BuChE = BuChE (Homo sapiens, UniProt P06276); assay: BuChE inhibition, modified Ellman's method; type: biochemical; conditions: for IC50: tested at 5–80 μg/mL
Chain of BuChE (P06276 29-602): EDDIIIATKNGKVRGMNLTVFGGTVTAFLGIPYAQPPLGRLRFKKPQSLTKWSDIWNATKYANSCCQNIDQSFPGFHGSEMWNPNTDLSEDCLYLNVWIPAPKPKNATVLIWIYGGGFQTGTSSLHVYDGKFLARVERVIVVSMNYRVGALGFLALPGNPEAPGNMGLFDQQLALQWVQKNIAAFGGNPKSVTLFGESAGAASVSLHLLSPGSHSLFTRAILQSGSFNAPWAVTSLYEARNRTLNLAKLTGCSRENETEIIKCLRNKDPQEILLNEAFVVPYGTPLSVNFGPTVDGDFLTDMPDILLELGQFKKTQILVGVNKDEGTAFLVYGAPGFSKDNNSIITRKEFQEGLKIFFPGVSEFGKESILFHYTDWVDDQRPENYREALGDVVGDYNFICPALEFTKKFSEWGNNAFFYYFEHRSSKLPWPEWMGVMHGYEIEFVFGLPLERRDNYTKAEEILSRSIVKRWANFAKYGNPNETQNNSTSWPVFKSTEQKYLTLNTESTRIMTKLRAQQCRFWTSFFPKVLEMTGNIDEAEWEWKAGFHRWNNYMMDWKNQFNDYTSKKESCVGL

A549 cells [3] = assay: DNA synthesis inhibition (BrdU ELISA), A549; type: cell-based, human; conditions: A549, compound at its IC50, 24 h
Procedure: (§3) The immunostaining procedure was carried out with specific anti-BrdU antibodies in the S-phase of the cell cycle. DNA synthesis inhibitory effects of all compounds were evaluated for 24 h. A549 and C6 cell lines were incubated with three different concentrations of the compounds that were determined according to their IC50 values. Cisplatin was used as a positive control.
(§4) Analysis of DNA synthesis was measured by a Cell Proliferation ELISA, BrdU (colorimetric) kit (Roche, Mannheim, Germany). This immunostaining procedure is based on measuring the incorporation of bromodeoxyuridine (BrdU) into nuclear DNA in place of thymidine during the S-phase of the cell cycle using specific anti-BrdU antibodies. […] Firstly cells were seeded into 96 well flat-bottomed microtiter plates at a density of 2 × 10^3. […] Microtiter plates were incubated at 37 °C in a 5% CO2/95% air humidified atmosphere for 24 h. Cells were labeled with 10 µL BrdU solution for 2 h and then fixed. Anti-BrdU-POD (100 µL) was added and incubated for 90 min. Finally, wells were washed with BPS and cells were incubated with substrate. Absorbance of the samples was measured with an ELX808-IU Bio-Tek apparatus at 492 nm. All experiments were repeated two times. For each compound dose, dublicate wells were used.

C6 cells [4] = assay: Mitochondrial membrane potential (JC-1) flow cytometry, C6; type: cell-based, rat; conditions: IC50 dose, 24 h
Procedure: (§5) During apoptosis, several key events occur in mitochondria including the release of cytochrome c, changes in electron transport, and loss of mitochondrial transmembrane potential (ΔΨm). For this reason, ΔΨm is an important parameter of mitochondrial function in apoptosis.
(§6) The cells were seeded in six-well plates at a density of 10^5 cells/mL, and the IC50 dose of compounds 2, 5 and 10 was added to cells. The cells were incubated in 5% CO2 air-conditioned atmosphere at 37 °C. […] 5,5′,6,6′-Tetrachloro-1,1′,3,3′-tetraethylbenzimidazolylcarbocyanine iodide (JC-1) dye solution (1× assay buffer + JC-1 stock solution) was added to the cells. The stock solution was prepared by dissolving DMSO. Then the samples were incubated at a temperature of 37 °C for 10–15 min. After incubation, the cells were washed twice with an assay buffer and analyzed by BD FACS Aria Cell Sorter Software version 6.1.1 flow cytometry (BD Biosciences). The cells showing mitochondrial membrane potential disruption were determined as a percentage of all cells.

A549 cells [5] = assay: Mitochondrial membrane potential (JC-1) flow cytometry, A549; type: cell-based, human; conditions: IC50 dose, 24 h
Procedure: as §5, §6

C6 cells [6] = assay: DNA synthesis inhibition (BrdU ELISA), C6; type: cell-based, rat; conditions: C6, compound at its IC50, 24 h
Procedure: as §3, §4

A549 cells [7] = assay: Annexin V-PI flow cytometry of apoptosis, A549; type: cell-based; conditions: IC50 dose, 24 h
Procedure: (§7) Annexin V staining protocol was applied according to the manufacturer’s instructions (BD Pharmingen). The cells were then briefly washed with cold phosphate buffer saline (PBS) and suspended in a binding buffer at a concentration of 1 × 10^6 cells/mL. Then, 100 µL of this solution containing 1 × 10^5 cells was transferred to a 5 mL test tube. After 5 µL of Annexin-V and PI was added, the cells were incubated for 15 min at room temperature in the dark. Then 400 µL of 1x Binding Buffer was added to each tube and the cells were processed for data acquisition, and analyzed on a Becton–Dickinson FACS Aria using […] Version 6.1.1. Software (BD Biosciences, San Jose, CA, USA).

C6 cells [8] = assay: Annexin V-PI flow cytometry of apoptosis, C6; type: cell-based; conditions: IC50 dose, 24 h
Procedure: as §7

Structure (SMILES)	IC50 [1]	IC50 (AChE)	cytotoxicity (in words) [2]	IC50 [2]	cytotoxicity (in words) (C6 rat glioma cells)	IC50 (C6 rat glioma cells)	inhibition on BuChE (in words) (BuChE)	IC50 (BuChE)	DNA synthesis inhibition percent (A549 cells [3])	P2 (%) mitochondrial membrane polarized cells, C6 Cells (C6 cells [4])	P3 (%) mitochondrial membrane depolarized cells, C6 Cells (C6 cells [4])	P2 (%) mitochondrial membrane polarized cells, A549 Cells (A549 cells [5])	P3 (%) mitochondrial membrane depolarized cells, A549 Cells (A549 cells [5])	DNA synthesis inhibition percent (C6 cells [6])	Early and Late Apoptotic Cells % A549 Cells (A549 cells [7])	Viability % A549 Cells (A549 cells [7])	Early and Late Apoptotic Cells % C6 Cells (C6 cells [8])	Viability % C6 Cells (C6 cells [8])	inhibitory activity against AChE (in words) (AChE)
S=C(NN=Cc1ccc(Br)cc1)Nc1ccc2c(c1)OCO2 [Compound 8, 4-(1,3-Benzodioxole-5-yl)-1-(4-bromobenzylidene)thiosemicarbazide]	9.16 ± 2.47 µM	> 212 µM	no significant cytotoxicity	> 132 µM	no significant cytotoxicity	> 132 µM	weak inhibition	> 212 µM											
S=C(N/N=C/c1cc2c(cc1Br)OCO2)Nc1ccc2c(c1)OCO2 [Compound 10]	38.3 ± 2.08 µM	108 ± 3.53 µM		29.7 ± 5.51 µM		12.3 ± 4.93 µM	weak inhibition	> 189 µM	56.38%	35.1%	63.7%	21.9%	57.9%	53.96%	6.2%	81.2%	15.8%	69.6%	
CN(C)c1ccc(C=NNC(=S)Nc2ccc3c(c2)OCO3)cc1 [Compound 4, 4-(1,3-Benzodioxole-5-yl)-1-(4-dimethylaminobenzylidene)thiosemicarbazide]	> 146 µM	> 234 µM	no significant cytotoxicity	> 146 µM	no significant cytotoxicity	> 146 µM		> 213 µM											
S=C(NN=Cc1ccc(Cl)cc1)Nc1ccc2c(c1)OCO2 [Compound 7, 4-(1,3-Benzodioxole-5-yl)-1-(4-chlorobenzylidene)thiosemicarbazide]	9.5 ± 2.5 µM	> 240 µM	no significant cytotoxicity	> 150 µM	no significant cytotoxicity	> 150 µM	weak inhibition	> 240 µM											
S=C(NN=Cc1ccc(-c2ccccc2)cc1)Nc1ccc2c(c1)OCO2 [Compound 5, 4-(1,3-Benzodioxole-5-yl)-1-[(biphenyl-4-yl)methylene]thiosemicarbazide]	21.3 ± 5.77 µM	> 213 µM		10.7 ± 1.53 µM		4.33 ± 1.04 µM		> 213 µM	57.79%	49.8%	45.0%	52.7%	24.6%	62.98%	12.11%	81.8%	25.0%	60.2%	did not show any inhibitory activity
N#Cc1ccc(C=NNC(=S)Nc2ccc3c(c2)OCO3)cc1 [Compound 3, 4-(1,3-Benzodioxole-5-yl)-1-(4-cyanobenzylidene)thiosemicarbazide]	> 154 µM	> 213 µM		28 ± 1 µM		49.3 ± 1.15 µM		> 213 µM	53.24%					54.99%					did not show any inhibitory activity
Fc1ccc(C=NNC(=S)Nc2ccc3c(c2)OCO3)cc1 [Compound 6, 4-(1,3-Benzodioxole-5-yl)-1-(4-fluorobenzylidene)thiosemicarbazide]	2.87 ± 0.05 µM	> 252 µM	no significant cytotoxicity	> 158 µM	no significant cytotoxicity	> 158 µM		> 213 µM											
S=C(NN=Cc1ccc(Cl)c(Cl)c1)Nc1ccc2c(c1)OCO2 [Compound 9, 4-(1,3-Benzodioxole-5-yl)-1-(3,4-dichlorobenzylidene)thiosemicarbazide]	> 136 µM	205 ± 5 µM		51.5 ± 4.95 µM		25.3 ± 1.53 µM		> 213 µM	27.3%					37.71%					
S=C(NN=Cc1ccccc1)Nc1ccc2c(c1)OCO2 [Compound 1, 4-(1,3-Benzodioxole-5-yl)-1-(benzylidene)thiosemicarbazide]	> 167 µM	> 267 µM	no significant cytotoxicity	> 167 µM	no significant cytotoxicity	> 167 µM		> 213 µM											
